From patent publication US8754098B2 (Salix Pharmaceuticals, Ltd., priority 2008, dated 2014)
Blank lines part the entries; values can stand above or below the compound they belong to.

Key:
Type in all cases: physicochemical
[1] = Rifaximin drying experiments (solid form by XRPD); details: for XRPD Form: vac oven 50° C., 1 day; for solid form after vacuum dried: vacuum dried (Table 1)
From the text: Dried materials obtained by vacuum drying or heating the hydrates were labeled “dry”. […] After a portion of the rifaximin was removed for XRPD analysis the remainder of the sample was dried under vacuum at ambient temperature for approximately one day. Solids were stored in a dessicator prior to analysis by XRPD. (FIG. 9)

[2] = Stressing under various relative humidities (solid form by XRPD); details: for RH stability: solid form change after exposing to 58% RH / RH stability: solid form change after exposing to 75% RH: am = amorphous
Experimental: Stressing Under Various Relative Humidities (RH)
The jar was sealed and stored at either ambient temperature or in an oven at elevated temperature.
X-ray powder diffraction (XRPD) analyses were performed using a Shimadzu XRD-6000 X-ray powder diffractometer using Cu Kα radiation. The instrument is equipped with a long fine focus X-ray tube. The tube voltage and amperage were set to 40 kV and 40 mA, respectively. The divergence and scattering slits were set at 1° and the receiving slit was set at 0.15 mm. Diffracted radiation was detected by a NaI scintillation detector. A θ-2θ continuous scan at 3°/min (0.4 sec/0.02° step) from 2.5 to 40°2θ was used. A silicon standard was analyzed to check the instrument alignment. Data were collected and analyzed using XRD-6100/7000 v. 5.0. Samples were prepared for analysis by placing them in a sample holder.
X-ray powder diffraction (XRPD) analyses were performed using an Inel XRG-3000 diffractometer equipped with a CPS (Curved Position Sensitive) detector with a 2θ range of 120°. Real time data were collected using Cu—Kα radiation starting at approximately 4° 2θ at a resolution of 0.03° 2θ. The tube voltage and amperage were set to 40 kV and 30 mA, respectively. The monochromator slit was set at 5 mm by 160 μm. […] Samples were prepared for analysis by packing them into thin-walled glass capillaries. Each capillary was mounted onto a goniometer head that is motorized to permit spinning of the capillary during data acquisition. The samples were analyzed for 300 sec. Instrument calibration was performed using a silicon reference standard.

[3] = Automated moisture sorption/desorption (MB / DVS); details: for Post-MB XRPD / Final Form post moisture sorption/desorption: sorption from 5% RH to 95% RH, desorption from 95% RH to 5% RH; for wt loss upon equilibration at 5% RH: moisture balance
Experimental: Automated Moisture Sorption/Desorption Moisture sorption/desorption data were collected on a VTI SGA-100 Vapor Sorption Analyzer. Sorption and desorption data were collected over a range of 5% to 95% relative humidity (RH) at 10% RH intervals under a nitrogen purge. Samples were not dried prior to analysis. Equilibrium criteria used for analysis were less than 0.0100% weight change in 5 minutes, with a maximum equilibration time of 3 hours if the weight criterion was not met. Data were not corrected for the initial moisture content of the samples. NaCl and PVP were used as calibration standards.

[4] = Milling experiments for amorphous rifaximin; details: scraped sides
Experimental: (§1) Vapor stressing experiments were done on amorphous material from two preparations: lyophilization from p-dioxane:water 1:1 and crash precipitation from ethyl acetate with heptane. […] The majority of the stressed samples appeared as clear red solutions after 6 days. Those solutions were placed in vials of antisolvent for vapor diffusion. Dry and wet milling experiments were conducted on amorphous materials from the two preparations mentioned above. Amorphous materials were recovered from the dry milling experiments.
A solid sample of rifaximin was charged to a milling container with a milling ball. Samples were milled for 5 or 15 minute intervals (2×5 minutes, 2×15 minutes, and 3×15 minutes) at 30 Hz using a Retsch MM200 mixer mill. Solids were scraped from the sides of the vial after each interval.

[5] = Stressing of amorphous rifaximin (vapor stress, vapor diffusion); details: for form from vapor diffusion experiment: water as an antisolvent
Experimental: as §1

[6] = first amorphous sample of Table 3 (footnote c, 3436-54)
[7] = second amorphous sample of Table 3 (footnote d, 3436-55)

Compound: CO[C@H]1/C=C/O[C@@]2(C)Oc3c(C)c(O)c4c(O)c(c5c(nc6cc(C)ccn65)c4c3C2=O)NC(=O)/C(C)=C\C=C\[C@H](C)[C@H](O)[C@@H](C)[C@@H](O)[C@@H](C)[C@H](OC(C)=O)[C@@H]1C [Form α-dry, Rifaximin]
XRPD Form [1]: α dry
XRPD Form ([1]; vac oven 60° C.): α dry
solid form after vacuum dried ([1]; listed as α dry): α dry
Final Form ([2]; 33% RH, 2 days): α
Final Form ([2]; 33% RH, 7 days): α
Final Form ([2]; 43% RH, 4 days): α + β
Final Form ([2]; 43% RH, 11 days): β + (α)
RH stability: solid form change after exposing to 58% RH ([2]; listed as α dry): β
RH stability: solid form change after exposing to 75% RH ([2]; listed as α dry): β
RH stability: solid form change after exposing to 94% RH ([2]; 94% RH): β
Post-MB XRPD / Final Form post moisture sorption/desorption ([3]; listed as α dry): α dry

Compound: CO[C@H]1/C=C/O[C@@]2(C)Oc3c(C)c(O)c4c(O)c(c5c(nc6cc(C)ccn65)c4c3C2=O)NC(=O)/C(C)=C\C=C\[C@H](C)[C@H](O)[C@@H](C)[C@@H](O)[C@@H](C)[C@H](OC(C)=O)[C@@H]1C [Form β, Rifaximin, reference compound]
XRPD Form ([2]; P2O5, 4 days): α dry

Compound: CO[C@H]1/C=C/O[C@@]2(C)Oc3c(C)c(O)c4c(O)c(c5c(nc6cc(C)ccn65)c4c3C2=O)NC(=O)/C(C)=C\C=C\[C@H](C)[C@H](O)[C@@H](C)[C@@H](O)[C@@H](C)[C@H](OC(C)=O)[C@@H]1C [Form β-1, Rifaximin]
RH stability: solid form change after exposing to 58% RH ([2]; listed as β-1): β + pk
RH stability: solid form change after exposing to 75% RH ([2]; listed as β-1): β

Compound: CO[C@H]1/C=C/O[C@@]2(C)Oc3c(C)c(O)c4c(O)c(c5c(nc6cc(C)ccn65)c4c3C2=O)NC(=O)/C(C)=C\C=C\[C@H](C)[C@H](O)[C@@H](C)[C@@H](O)[C@@H](C)[C@H](OC(C)=O)[C@@H]1C [Form β-2, Rifaximin]
solid form after vacuum dried ([1]; listed as β-2): α dry
RH stability: solid form change ([2]; studied at 20% RH (footnote d)): α^d

Compound: CO[C@H]1/C=C/O[C@@]2(C)Oc3c(C)c(O)c4c(O)c(c5c(nc6cc(C)ccn65)c4c3C2=O)NC(=O)/C(C)=C\C=C\[C@H](C)[C@H](O)[C@@H](C)[C@@H](O)[C@@H](C)[C@H](OC(C)=O)[C@@H]1C [Form γ, Rifaximin, reference compound]
hygroscopicity [3]: hygroscopic
wt loss upon equilibration at 5% RH [3]: 2.4%

More lines, now with the values ahead:

solid form after vacuum dried [1]: η or and γ + η
XRPD Form / Final Form after stability chamber ([2]; 75% RH at 40° C., 1 day): ζ + γ^e
Compound: CO[C@H]1/C=C/O[C@@]2(C)Oc3c(C)c(O)c4c(O)c(c5c(nc6cc(C)ccn65)c4c3C2=O)NC(=O)/C(C)=C\C=C\[C@H](C)[C@H](O)[C@@H](C)[C@@H](O)[C@@H](C)[C@H](OC(C)=O)[C@@H]1C [Form ζ, Rifaximin]

solid form after vacuum dried ([1]; listed as η): η
Compound: CO[C@H]1/C=C/O[C@@]2(C)Oc3c(C)c(O)c4c(O)c(c5c(nc6cc(C)ccn65)c4c3C2=O)NC(=O)/C(C)=C\C=C\[C@H](C)[C@H](O)[C@@H](C)[C@@H](O)[C@@H](C)[C@H](OC(C)=O)[C@@H]1C [Form η, Rifaximin]

form by XRPD analysis after storage ([2]; 58% RH for 8 days): remained amorphous
RH stability: solid form change after exposing to 58% RH [2]: am
RH stability: solid form change after exposing to 75% RH [2]: am
XRPD Result after milling ([4]; sample source CP from EtOAc with heptane, 10 min. at 30 Hz): amor-
XRPD Result after milling ([4]; sample source lyophilization from p-dioxane: water 1:1, 10 min. at 30 Hz): amor-
DVS weight gain from 5-95% RH [3, 6]: 8.364% eight gain from 5-95%
DVS weight loss from 95-5% RH [3, 6]: 10.989% weight loss from 95-
wt loss upon equilibration at 5% RH ([3]; listed as Rifaximin Amorphous): 0.7% wt loss upon equilibration at 5% RH
DVS weight gain from 5-95% RH [3, 7]: 7.843% weight gain from 5-
DVS weight loss from 95-5% RH [3, 7]: 9.172% weight loss from 95-5%
Post-MB XRPD / Final Form post moisture sorption/desorption ([3]; listed as Amorphous): amorphous
Post-MB XRPD / Final Form post moisture sorption/desorption ([3]; listed as Amorphous rifaximin): amorphous
Post-MB XRPD / Final Form post moisture sorption/desorption ([3]; listed as Rifaximin Amorphous): amorphous
XRPD Result ([5]; DCM, VD w/ IPE, 11 days): amorphous
XRPD Result ([5]; MEK, VD w/ IPE, 11 days): amorphous
form from vapor diffusion experiment ([5]; methanol): Form β
form from vapor diffusion experiment ([5]; tetrahydrofuran): Form β
XRPD Result ([5]; toluene, VS, RT, 6 days, Amorphous Materials): amorphous
XRPD Result ([5]; toluene, VS, RT, 6 days, listed as amorphous material): no peaks
XRPD Result ([5]; water, VS, RT, 15 days): amorphous
Compound: CO[C@H]1/C=C/O[C@@]2(C)Oc3c(C)c(O)c4c(O)c(c5c(nc6cc(C)ccn65)c4c3C2=O)NC(=O)/C(C)=C\C=C\[C@H](C)[C@H](O)[C@@H](C)[C@@H](O)[C@@H](C)[C@H](OC(C)=O)[C@@H]1C [amorphous, Rifaximin]

hygroscopicity [3]: moderately hygroscopic
Compound: CO[C@H]1/C=C/O[C@@]2(C)Oc3c(C)c(O)c4c(O)c(c5c(nc6cc(C)ccn65)c4c3C2=O)NC(=O)/C(C)=C\C=C\[C@H](C)[C@H](O)[C@@H](C)[C@@H](O)[C@@H](C)[C@H](OC(C)=O)[C@@H]1C [crash amorphous rifaximin, Rifaximin]

hygroscopicity [3]: moderately hygroscopic
Compound: CO[C@H]1/C=C/O[C@@]2(C)Oc3c(C)c(O)c4c(O)c(c5c(nc6cc(C)ccn65)c4c3C2=O)NC(=O)/C(C)=C\C=C\[C@H](C)[C@H](O)[C@@H](C)[C@@H](O)[C@@H](C)[C@H](OC(C)=O)[C@@H]1C [lyophilized amorphous rifaximin, Rifaximin]
